According to patent US20080206181A1, “Hair treatment compositions containing sophora alkaloids” (Conopco Inc, d/b/a UNILEVER, priority 2007, published 2008):
Marks after values point to notes of the source that are not given here.

Legend:
[1] = Protein leaching from hair fibres (BCA protein assay kit); conditions: for Protein leaching from hair fibres, Average: 1% test material + 2% SDS, pH about 6.0, 10 mg hair fibres, 37° C., 24 h; for Effect on protein leaching induced by SDS (in words): summary of Table 1
Procedure: Protein leaching assays were conducted in order to find out the protective effect of test materials on protein leaching from hair.
Chinese hair fibres from the same head were washed with shampoo and air dried. Then they were immersed in ether for 2 min to remove lipid components and rinsed with running water and air. The hair fibres were cut into ˜2 mm length with scissors.
A 200 μL solution consisting of 1% test material (matrine or oxymatrine respectively) and 2% sodium dodecyl sulphate (SDS), where pH was adjusted to about 6.0 with citric acid, was incubated with 10 mg hair fibres at 37° C. for 24 h.
Protein leaching from the treated hair fibres was determined with a BCA protein assay kit.
The data were collected and analysed with One-Way ANOVA by using SPSS software. LSD was used when variances were equal, and Tamhane's T2 was used when variances were not equal.

[2] = Differential scanning calorimetry (DSC) of bleach-damaged hair fibres; conditions: for Average Denaturation Temperature Td / Sub From damaged (Td increase over damaged hair): bleached hair immersed in 1% aqueous solution at pH 5.5 for 1 hour; for Repair of damage caused by bleaching hair fibre (in words): summary of Table 2
Procedure: To prepare damaged hair fibre, European hair fibres were bleached with L' Oreal Platifiz precision powder and Oxydant crème (1:1.5) for 30 min, rinsed completely with running tap water and naturally dried overnight before the next application. These hair fibres were immersed in a 1% aqueous solution of test material (matrine or oxymatrine respectively) and water (as a control) at pH 5.5 (adjusted with HCl and NaOH) for 1 hour respectively, rinsed with distilled water for 30 sec and naturally dried overnight and then they were cut into ˜2 mm lengths with scissors.
For the DSC investigation a Mettler Toledo DSC823e analyser was used. About 6 mg of sample was weighed into a pressure resistant (20 bar), stainless steel, large volume pan (120 μl capacity). 50 μl of water was added and the pan was sealed. Samples were then mixed using a rotary mixer and left overnight to allow the water to equilibrate throughout the sample. Samples were run through a temperature programme of […] at a rate of 10° C./min in 30 ml/min nitrogen atmosphere. The helix transition temperature was collected and analyzed with one-way ANOVA. Each sample was carried out three times.

| SMILES | Protein leaching from hair fibres, Average ([1]; 2nd Run) | Protein leaching from hair fibres, Average ([1]; 1st Run) | Effect on protein leaching induced by SDS (in words) [1] | Average Denaturation Temperature Td ([2]; 1st run) | Sub From damaged (Td increase over damaged hair) ([2]; 1st run) | Average Denaturation Temperature Td ([2]; 1st run, listed as matrine) | Average Denaturation Temperature Td ([2]; 2nd run) | Sub From damaged (Td increase over damaged hair) ([2]; 2nd run) | Repair of damage caused by bleaching hair fibre (in words) [2] | Average Denaturation Temperature Td ([2]; 1st run, listed as oxymatrine) |
| --- | --- | --- | --- | --- | --- | --- | --- | --- | --- | --- |
| O=C(O)CC(O)(CC(=O)O)C(=O)O [Citric acid] | 1.121 µg/mg | – | – | – | – | – | – | – | – | – |
| O=C1CCC[C@@H]2[C@H]3CCCN4CCC[C@@H](CN12)[C@@H]34 [Matrine, (+)-matrine] | 1.105* μg/mg | 0.792** μg/mg | reduce protein leaching | 148.00** ° C. | 5.43 °C | 148 °C | 148.07** ° C. | 4.89 | fully repair the damage | – |
| O=C1CCC[C@@H]2[C@H]3CCC[N+]4([O-])CCC[C@@H](CN12)[C@@H]34 (single isomer, unassigned; (+)) [Oxymatrine, (+)-oxymatrine] | 1.035** μg/mg | 0.854** μg/mg | reduce protein leaching | 152.24** ° C. | 9.68 °C | – | 150.67** ° C. | 7.49 | fully repair the damage | 152.24 °C |
